The test system of one series is SJSA-1. Briefly: Antiproliferative activity against human SJSA1 cells.
Series [1] in a line: Oral bioavailability in mouse at 20 mg/kg. It counts as ADME, organism-based. Conditions: in vivo.
The nature of series [2]: AUC in mouse at 20 mg/kg, iv and 20 mg/kg, po. The note with it: plasma. It counts as ADME, organism-based.
Series [3] is described as follows: Permeability of the compound in human Caco2 cells. It counts as ADME, cell-based. The note with it: Caco-2, read-out: permeability.
Series [4] has as its target E3 ubiquitin-protein ligase Mdm2 (Homo sapiens, UniProt Q00987). Briefly: Binding affinity to HDM2 (unknown origin) by fluorescence polarization peptide displacement assay. (Fluorescence polarisation rises when a labelled molecule tumbles more slowly, as on binding a larger partner.)

SMILES strings stand for the structures.

E3 ubiquitin-protein ligase Mdm2, sequence (Q00987 whole entry): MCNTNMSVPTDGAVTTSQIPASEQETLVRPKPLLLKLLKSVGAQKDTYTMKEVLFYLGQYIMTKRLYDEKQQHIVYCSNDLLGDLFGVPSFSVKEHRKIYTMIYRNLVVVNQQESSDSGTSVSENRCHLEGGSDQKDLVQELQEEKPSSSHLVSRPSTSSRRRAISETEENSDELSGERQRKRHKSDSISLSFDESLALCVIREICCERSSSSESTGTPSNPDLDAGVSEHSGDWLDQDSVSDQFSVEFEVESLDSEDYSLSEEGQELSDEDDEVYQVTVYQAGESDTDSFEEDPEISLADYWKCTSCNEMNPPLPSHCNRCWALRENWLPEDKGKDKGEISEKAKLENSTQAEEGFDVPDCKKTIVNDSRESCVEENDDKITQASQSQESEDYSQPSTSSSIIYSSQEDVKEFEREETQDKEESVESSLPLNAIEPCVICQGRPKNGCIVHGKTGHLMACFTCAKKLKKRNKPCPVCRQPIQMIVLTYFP

`C=CC[C@H]1N(C(=O)c2cnccc2C(F)(F)F)CCC[C@@]1(Oc1ccc(C(F)(F)F)cc1)C(=O)N1CCN(c2ccccc2OCCOC)CC1` returned a half-inhibitory concentration (IC50) in the series on SJSA-1 of 1 µM.
Compound `COc1ccccc1N1CCN(C(=O)[C@]2(Oc3ccc(C(F)(F)F)cc3)CCCN(C(=O)c3cnccc3C(F)(F)F)C2)CC1` gave a bioavailability in series [1] of 19%. In the series with SJSA-1, this compound registered a concentration for half-maximal inhibition (IC50) of 5.5 µM. The AUC in series [2] was 1900 nM·h. In series [3], the Papp is 158 nm/s.
For `COCCOc1ccccc1N1CCN(C(=O)[C@]2(Oc3ccc(C(F)(F)F)cc3)CCCN(C(=O)c3cnccc3C(F)(F)F)C2)CC1`, in that order: 32%, 4.7 µM, 1100 nM·h and 203 nm/s.
On to `COCCOc1ccccc1N1CCN(C(=O)[C@]2(Oc3ccc(C(F)(F)F)cc3)CC[C@H](c3ccccc3)N(C(=O)c3cnccc3C(F)(F)F)C2)CC1`, for which the IC50 in series [4] was greater than 10 µM.
For `COc1ccc(C2=N[C@@H](c3ccc(Cl)cc3)[C@@H](c3ccc(Cl)cc3)N2C(=O)N2CCNC(=O)C2)c(OC(C)C)c1` [NUTLIN-3], the 50% inhibitory concentration (IC50) in the series with SJSA-1 is 1.9 µM. Further, in series [3], the Papp turned out to be 126 nm/s.

A word on the IC50: it is the point on the concentration scale where inhibition reaches its midpoint. A higher IC50 goes with a need for much substance. Broadly, the bioavailability is dose-corrected exposure relative to a reference, in per cent. A high value points to good availability. One may read the AUC as concentration integrated over time.

The values are drawn from ChEMBL document CHEMBL3232918, “Core modification of substituted piperidines as novel inhibitors of HDM2-p53 protein-protein interaction” (Bioorg Med Chem Lett, 2014).
